{"source": "paper PMC7156458", "about": "“Synthetic biology based construction of biological activity-related library of fungal decalin-containing diterpenoid pyrones” (Nature Communications, 2020)", "type_in_all_cases": "cell-based", "key": {"l(2)mbn cells": {"test_system": "l(2)mbn cells", "experiment": "cytotoxicity in Drosophila l(2)mbn cells", "details": "for Luminescence Raw1: replicate 1; for Luminescence Raw2: replicate 2; for IC50: Drosophila melanogaster, cytotoxicity", "method": "(§1) We screened the DDPs on the Drosophila assay system for cytotoxicity, inhibitory activity of innate immune signalling and insecticidal activity. The cytotoxicity of the DDPs was evaluated using two cell lines, embryonic macrophage-derived DL1 cells[58]–[60] and larval blood cell-derived l(2)mbn cells, and their IC50 values are listed in Supplementary Table 23."}, "[1]": {"experiment": "cytotoxicity in Drosophila l(2)mbn cells", "details": "Drosophila, l(2)mbn cells (larval blood cell-derived)", "method": "as §1"}, "DL1 cells": {"test_system": "DL1 cells", "experiment": "cytotoxicity in Drosophila DL1 cells", "details": "for IC50: Drosophila melanogaster", "method": "as §1"}, "[2]": {"experiment": "cytotoxicity in Drosophila DL1 cells", "details": "Drosophila, DL1 cells (embryonic macrophage-derived), DL1 cells", "method": "as §1"}, "[3]": {"details": "replicate 1, relative to DMSO 1%, read-out: % viability, viability 1"}, "[4]": {"details": "replicate 2, relative to DMSO 1%, read-out: % viability, viability 2"}, "[5]": {"details": "DL1 cells, 0.04 µM, replicate 1"}, "[6]": {"details": "DL1 cells, 0.04 µM, replicate 2"}, "[7]": {"details": "DL1 cells, cytotoxicity, average of two replicates, read-out: IC50 Average"}, "[8]": {"details": "DL1 cells, cytotoxicity, replicate 1, read-out: IC50 (1)"}, "[9]": {"details": "DL1 cells, cytotoxicity, replicate 2, read-out: IC50 (2)"}}, "note": "Like-named read-outs stand apart in the source and are kept apart here.", "data": [{"compound": "C=C1CCC2C(C)(CC(=O)C=C(C)C)C(O)CCC2(C)C1Cc1c(OC)oc(C)c(C)c1=O", "note": "(stereo not shown) [Compound 25]", "values": [{"measurement": "Luminescence Raw1", "setting": "l(2)mbn cells; 0.04 µM", "value": 3193720}, {"measurement": "Luminescence Raw2", "setting": "l(2)mbn cells; 0.04 µM", "value": 3243139}, {"measurement": "Luminescence Raw1", "setting": "l(2)mbn cells; 0.2 µM", "value": 3343782}, {"measurement": "Luminescence Raw2", "setting": "l(2)mbn cells; 0.2 µM", "value": 3450197}, {"measurement": "Luminescence Raw1", "setting": "l(2)mbn cells; 1 µM", "value": 3097409}, {"measurement": "Luminescence Raw2", "setting": "l(2)mbn cells; 1 µM", "value": 3603150}, {"measurement": "Luminescence Raw1", "setting": "l(2)mbn cells; 4 µM", "value": 3528838}, {"measurement": "Luminescence Raw2", "setting": "l(2)mbn cells; 4 µM", "value": 3786770}, {"measurement": "Luminescence Raw1", "setting": "l(2)mbn cells; 10 µM", "value": 3209953}, {"measurement": "Luminescence Raw2", "setting": "l(2)mbn cells; 10 µM", "value": 3480138}, {"measurement": "Luminescence Raw1", "setting": "l(2)mbn cells; 20 µM", "value": 2234271}, {"measurement": "Luminescence Raw2", "setting": "l(2)mbn cells; 20 µM", "value": 2495041}, {"measurement": "IC50", "setting": "l(2)mbn cells; average±SEM, read-out: IC50", "value": "> 20000", "unit": "nM"}, {"measurement": "viability at 0.04 µM", "setting": "[1]; [3]", "value": 124, "unit": "%"}, {"measurement": "viability at 0.04 µM", "setting": "[1]; [4]", "value": 126, "unit": "%"}, {"measurement": "viability at 0.2 µM", "setting": "[1]; [3]", "value": 130, "unit": "%"}, {"measurement": "viability at 0.2 µM", "setting": "[1]; [4]", "value": 134, "unit": "%"}, {"measurement": "viability at 1 µM", "setting": "[1]; [3]", "value": 121, "unit": "%"}, {"measurement": "viability at 1 µM", "setting": "[1]; [4]", "value": 140, "unit": "%"}, {"measurement": "viability at 4 µM", "setting": "[1]; [3]", "value": 137, "unit": "%"}, {"measurement": "viability at 4 µM", "setting": "[1]; [4]", "value": 148, "unit": "%"}, {"measurement": "viability at 10 µM", "setting": "[1]; [3]", "value": 125, "unit": "%"}, {"measurement": "viability at 10 µM", "setting": "[1]; [4]", "value": 136, "unit": "%"}, {"measurement": "viability at 20 µM", "setting": "[1]; [3]", "value": 87.1, "unit": "%"}, {"measurement": "viability at 20 µM", "setting": "[1]; [4]", "value": 97.2, "unit": "%"}, {"measurement": "Luminescence Raw1", "setting": "DL1 cells; [5]", "value": 2772839}, {"measurement": "Luminescence Raw2", "setting": "DL1 cells; [6]", "value": 2800252}, {"measurement": "Luminescence Raw1", "setting": "DL1 cells; DL1 cells, 0.2 µM, replicate 1", "value": 2673287}, {"measurement": "Luminescence Raw2", "setting": "DL1 cells; DL1 cells, 0.2 µM, replicate 2", "value": 2657777}, {"measurement": "Luminescence Raw1", "setting": "DL1 cells; DL1 cells, 1 µM, replicate 1", "value": 2635775}, {"measurement": "Luminescence Raw2", "setting": "DL1 cells; DL1 cells, 1 µM, replicate 2", "value": 2736769}, {"measurement": "Luminescence Raw1", "setting": "DL1 cells; DL1 cells, 4 µM, replicate 1", "value": 2684468}, {"measurement": "Luminescence Raw2", "setting": "DL1 cells; DL1 cells, 4 µM, replicate 2", "value": 2551374}, {"measurement": "Luminescence Raw1", "setting": "DL1 cells; DL1 cells, 10 µM, replicate 1", "value": 2257781}, {"measurement": "Luminescence Raw2", "setting": "DL1 cells; DL1 cells, 10 µM, replicate 2", "value": 2619904}, {"measurement": "Luminescence Raw1", "setting": "DL1 cells; DL1 cells, 20 µM, replicate 1", "value": 396244}, {"measurement": "Luminescence Raw2", "setting": "DL1 cells; DL1 cells, 20 µM, replicate 2", "value": 560668}, {"measurement": "IC50", "setting": "DL1 cells; [7]", "value": 17200, "unit": "nM"}, {"measurement": "IC50", "setting": "DL1 cells; DL1 cells, cytotoxicity, average±SEM, read-out: IC50", "value": "17200 ± 2060", "unit": "nM"}, {"measurement": "IC50", "setting": "DL1 cells; [8]", "value": 15100, "unit": "nM"}, {"measurement": "IC50", "setting": "DL1 cells; [9]", "value": 19200, "unit": "nM"}, {"measurement": "viability at 0.04 µM", "setting": "[2]; [3]", "value": 135, "unit": "%"}, {"measurement": "viability at 0.04 µM", "setting": "[2]; [4]", "value": 136, "unit": "%"}, {"measurement": "viability at 0.2 µM", "setting": "[2]; [3]", "value": 130, "unit": "%"}, {"measurement": "viability at 0.2 µM", "setting": "[2]; [4]", "value": 129, "unit": "%"}, {"measurement": "viability at 1 µM", "setting": "[2]; [3]", "value": 128, "unit": "%"}, {"measurement": "viability at 1 µM", "setting": "[2]; [4]", "value": 133, "unit": "%"}, {"measurement": "viability at 4 µM", "setting": "[2]; [3]", "value": 130, "unit": "%"}, {"measurement": "viability at 4 µM", "setting": "[2]; [4]", "value": 124, "unit": "%"}, {"measurement": "viability at 10 µM", "setting": "[2]; [3]", "value": 110, "unit": "%"}, {"measurement": "viability at 10 µM", "setting": "[2]; [4]", "value": 127, "unit": "%"}, {"measurement": "viability at 20 µM", "setting": "[2]; [3]", "value": 19.2, "unit": "%"}, {"measurement": "viability at 20 µM", "setting": "[2]; [4]", "value": 27.2, "unit": "%"}]}, {"compound": "C=C1CC[C@@H]2[C@](C)(CC[C@H]3O[C@H](C=C(C)C)C[C@@]23C)[C@@H]1Cc1c(OC)oc(CO)c(C(=O)OC)c1=O", "note": "[Compound 21]", "values": [{"measurement": "Luminescence Raw2", "setting": "l(2)mbn cells; 0.2 µM", "value": 2750409}, {"measurement": "Luminescence Raw1", "setting": "l(2)mbn cells; 0.4 µM", "value": 2719029}, {"measurement": "Luminescence Raw2", "setting": "l(2)mbn cells; 0.4 µM", "value": 2813892}, {"measurement": "Luminescence Raw1", "setting": "l(2)mbn cells; 0.8 µM", "value": 2929318}, {"measurement": "Luminescence Raw2", "setting": "l(2)mbn cells; 0.8 µM", "value": 2922825}, {"measurement": "Luminescence Raw1", "setting": "l(2)mbn cells; 1 µM", "value": 2523535}, {"measurement": "IC50", "setting": "l(2)mbn cells; average of two replicates, read-out: IC50 Average", "value": 2660, "unit": "nM"}, {"measurement": "IC50", "setting": "l(2)mbn cells; average±SEM, read-out: IC50", "value": "2660 ± 220", "unit": "nM"}, {"measurement": "IC50", "setting": "l(2)mbn cells; replicate 1, read-out: IC50 (1)", "value": 2440, "unit": "nM"}, {"measurement": "IC50", "setting": "l(2)mbn cells; replicate 2, read-out: IC50 (2)", "value": 2880, "unit": "nM"}, {"measurement": "Luminescence Raw1", "setting": "DL1 cells; [5]", "value": 237970}, {"measurement": "Luminescence Raw2", "setting": "DL1 cells; [6]", "value": 362006}, {"measurement": "Luminescence Raw1", "setting": "DL1 cells; DL1 cells, 0.2 µM, replicate 1", "value": 165136}, {"measurement": "Luminescence Raw2", "setting": "DL1 cells; DL1 cells, 0.2 µM, replicate 2", "value": 171986}, {"measurement": "Luminescence Raw1", "setting": "DL1 cells; DL1 cells, 1 µM, replicate 1", "value": 144944}, {"measurement": "Luminescence Raw2", "setting": "DL1 cells; DL1 cells, 1 µM, replicate 2", "value": 98793}, {"measurement": "Luminescence Raw1", "setting": "DL1 cells; DL1 cells, 4 µM, replicate 1", "value": 143141}, {"measurement": "Luminescence Raw2", "setting": "DL1 cells; DL1 cells, 4 µM, replicate 2", "value": 140618}, {"measurement": "Luminescence Raw1", "setting": "DL1 cells; DL1 cells, 10 µM, replicate 1", "value": 144223}, {"measurement": "Luminescence Raw2", "setting": "DL1 cells; DL1 cells, 10 µM, replicate 2", "value": 161530}, {"measurement": "Luminescence Raw1", "setting": "DL1 cells; DL1 cells, 20 µM, replicate 1", "value": 95187}, {"measurement": "Luminescence Raw2", "setting": "DL1 cells; DL1 cells, 20 µM, replicate 2", "value": 124032}, {"measurement": "IC50", "setting": "DL1 cells; [7]", "value": "< 40", "unit": "nM"}, {"measurement": "IC50", "setting": "DL1 cells; [8]", "value": "< 40", "unit": "nM"}, {"measurement": "IC50", "setting": "DL1 cells; [9]", "value": "< 40", "unit": "nM"}, {"measurement": "IC50", "setting": "DL1 cells; DL-1 cell line, cell growth, read-out: IC50", "value": "< 40", "unit": "nM"}, {"measurement": "viability at 0.04 µM", "setting": "[2]; [3]", "value": 5.78, "unit": "%"}, {"measurement": "viability at 0.04 µM", "setting": "[2]; [4]", "value": 8.79, "unit": "%"}, {"measurement": "viability at 0.2 µM", "setting": "[2]; [3]", "value": 4.01, "unit": "%"}, {"measurement": "viability at 0.2 µM", "setting": "[2]; [4]", "value": 4.17, "unit": "%"}, {"measurement": "viability at 1 µM", "setting": "[2]; [3]", "value": 3.52, "unit": "%"}, {"measurement": "viability at 1 µM", "setting": "[2]; [4]", "value": 2.4, "unit": "%"}, {"measurement": "viability at 4 µM", "setting": "[2]; [3]", "value": 3.47, "unit": "%"}, {"measurement": "viability at 4 µM", "setting": "[2]; [4]", "value": 3.41, "unit": "%"}, {"measurement": "viability at 10 µM", "setting": "[2]; [3]", "value": 3.5, "unit": "%"}, {"measurement": "viability at 10 µM", "setting": "[2]; [4]", "value": 3.92, "unit": "%"}, {"measurement": "viability at 20 µM", "setting": "[2]; [3]", "value": 2.31, "unit": "%"}, {"measurement": "viability at 20 µM", "setting": "[2]; [4]", "value": 3.01, "unit": "%"}]}]}
